Measured values reported in PubChem BioAssay AID1918995 (Molecular Pharmacology Branch, DTP, NCI, 2023).

System: 324938-238-R-J1-PDC complex spheroid growth, % test/control
Test: Anticancer human tumor 324938-238-R-J1-PDC patient-derived bladder carcinoma cell line growth inhibition [AhR]
Conditions: for IC50: curve of first compound; for viability, T/C: stronger effect = lower value
Method in brief: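 Agents were dosed in half-log steps down from roughly clinical Cmax, or from 10 microM where Cmax was unknown, alone and with AhR antagonists. Read-out: percent test/control growth of tumor spheroids containing HUVEC and MSC stromal cells.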

[1] = second compound 0.1 µM, first compound 0.0316 µM
[2] = second compound 0.1 µM, first compound 0.1 µM
[3] = second compound 0.1 µM, first compound 0.316 µM
[4] = second compound 0.1 µM, first compound 1 µM
[5] = second compound 0.1 µM, first compound 3.16 µM
[6] = second compound 0.1 µM, first compound 10 µM
[7] = second compound 0.316 µM, first compound 0.0316 µM
[8] = second compound 0.316 µM, first compound 0.1 µM
[9] = second compound 0.316 µM, first compound 0.316 µM
[10] = second compound 0.316 µM, first compound 1 µM
[11] = second compound 0.316 µM, first compound 3.16 µM
[12] = second compound 0.316 µM, first compound 10 µM
[13] = second compound 1 µM, first compound 0.0316 µM
[14] = second compound 1 µM, first compound 0.1 µM
[15] = second compound 1 µM, first compound 0.316 µM
[16] = second compound 1 µM, first compound 1 µM
[17] = second compound 1 µM, first compound 3.16 µM
[18] = second compound 1 µM, first compound 10 µM
[19] = second compound 3.16 µM, first compound 0.0316 µM
[20] = second compound 3.16 µM, first compound 0.1 µM
[21] = second compound 3.16 µM, first compound 0.316 µM
[22] = second compound 3.16 µM, first compound 1 µM
[23] = second compound 3.16 µM, first compound 3.16 µM
[24] = second compound 3.16 µM, first compound 10 µM
[25] = second compound 10 µM, first compound 0.0316 µM
[26] = second compound 10 µM, first compound 0.1 µM
[27] = second compound 10 µM, first compound 0.316 µM
[28] = second compound 10 µM, first compound 1 µM
[29] = second compound 10 µM, first compound 3.16 µM
[30] = second compound 10 µM, first compound 10 µM
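Also: spheroids exposed to agents for seven days before viability read.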

CCN(c1cc(-c2ccc(CN3CCOCC3)cc2)cc(C(=O)NCc2c(C)cc(C)[nH]c2=O)c1C)C1CCOCC1 + CC(CO)NC(=O)c1cc(-c2ccc(Cl)cc2)nn(-c2cnn(C)c2)c1=O
IC50 (second compound 0.1 µM): > 3 µM
IC50 (second compound 0.316 µM): > 3 µM
IC50 (second compound 1 µM): > 3 µM
IC50 (second compound 3.16 µM): > 3 µM
IC50 (second compound 10 µM): > 3 µM
viability, T/C (second compound 0.1 µM, first compound 0.00949 µM): 105%
viability, T/C (second compound 0.1 µM, first compound 0.03 µM): 114%
viability, T/C (second compound 0.1 µM, first compound 0.0949 µM): 107%
viability, T/C (second compound 0.1 µM, first compound 0.3 µM): 101%
viability, T/C (second compound 0.1 µM, first compound 0.949 µM): 95%
viability, T/C (second compound 0.1 µM, first compound 3 µM): 101%
viability, T/C (second compound 0.316 µM, first compound 0.00949 µM): 102%
viability, T/C (second compound 0.316 µM, first compound 0.03 µM): 96.3%
viability, T/C (second compound 0.316 µM, first compound 0.0949 µM): 92.8%
viability, T/C (second compound 0.316 µM, first compound 0.3 µM): 94.8%
viability, T/C (second compound 0.316 µM, first compound 0.949 µM): 96.6%
viability, T/C (second compound 0.316 µM, first compound 3 µM): 93.2%
viability, T/C (second compound 1 µM, first compound 0.00949 µM): 88%
viability, T/C (second compound 1 µM, first compound 0.03 µM): 92.4%
viability, T/C (second compound 1 µM, first compound 0.0949 µM): 89.2%
viability, T/C (second compound 1 µM, first compound 0.3 µM): 98.3%
viability, T/C (second compound 1 µM, first compound 0.949 µM): 90.2%
viability, T/C (second compound 1 µM, first compound 3 µM): 88.9%
viability, T/C (second compound 3.16 µM, first compound 0.00949 µM): 79.3%
viability, T/C (second compound 3.16 µM, first compound 0.03 µM): 80.6%
viability, T/C (second compound 3.16 µM, first compound 0.0949 µM): 76.7%
viability, T/C (second compound 3.16 µM, first compound 0.3 µM): 72.5%
viability, T/C (second compound 3.16 µM, first compound 0.949 µM): 77.3%
viability, T/C (second compound 3.16 µM, first compound 3 µM): 77.6%
viability, T/C (second compound 10 µM, first compound 0.00949 µM): 70.4%
viability, T/C (second compound 10 µM, first compound 0.03 µM): 69%
viability, T/C (second compound 10 µM, first compound 0.0949 µM): 67.5%
viability, T/C (second compound 10 µM, first compound 0.3 µM): 77.3%
viability, T/C (second compound 10 µM, first compound 0.949 µM): 66.3%
viability, T/C (second compound 10 µM, first compound 3 µM): 74.1%

CC1COCCN1c1cc(C2(S(C)(=N)=O)CC2)nc(-c2ccnc3[nH]ccc23)n1 (stereo not given) + Cc1ccccc1N=Nc1ccc(NC(=O)c2ccnn2C)c(C)c1
IC50 (second compound 0.1 µM): 5.95 µM
IC50 (second compound 0.316 µM): 4.66 µM
IC50 (second compound 1 µM): 3.88 µM
IC50 (second compound 3.16 µM): 4.6 µM
IC50 (second compound 10 µM): 5.12 µM
viability, T/C [1]: 97.8%
viability, T/C [2]: 96.8%
viability, T/C [3]: 98.3%
viability, T/C [4]: 90.4%
viability, T/C [5]: 68.5%
viability, T/C [6]: 34.9%
viability, T/C [7]: 84.1%
viability, T/C [8]: 89.5%
viability, T/C [9]: 90.3%
viability, T/C [10]: 80.2%
viability, T/C [11]: 59%
viability, T/C [12]: 32.8%
viability, T/C [13]: 91.3%
viability, T/C [14]: 83.5%
viability, T/C [15]: 95%
viability, T/C [16]: 84.6%
viability, T/C [17]: 53.4%
viability, T/C [18]: 34.8%
viability, T/C [19]: 72.7%
viability, T/C [20]: 78.2%
viability, T/C [21]: 76.5%
viability, T/C [22]: 68.6%
viability, T/C [23]: 57.3%
viability, T/C [24]: 33.2%
viability, T/C [25]: 73.8%
viability, T/C [26]: 69.3%
viability, T/C [27]: 68.7%
viability, T/C [28]: 66%
viability, T/C [29]: 56.5%
viability, T/C [30]: 40.8%

Nc1ccccc1NC(=O)c1ccc(CNC(=O)OCc2cccnc2)cc1 + Cc1cncc(-c2nc(NCCc3c[nH]c4ccccc34)c3ncn(C(C)C)c3n2)c1
IC50 (second compound 0.1 µM): 1.74 µM
IC50 (second compound 0.316 µM): 4.61 µM
IC50 (second compound 1 µM): 3.44 µM
IC50 (second compound 3.16 µM): 4.1 µM
IC50 (second compound 10 µM): < 0.0316 µM
viability, T/C [1]: 87.7%
viability, T/C [2]: 91%
viability, T/C [3]: 97.5%
viability, T/C [4]: 48.9%
viability, T/C [5]: 43.2%
viability, T/C [6]: 6.54%
viability, T/C [7]: 67.6%
viability, T/C [8]: 104%
viability, T/C [9]: 79.5%
viability, T/C [10]: 83.4%
viability, T/C [11]: 72.2%
viability, T/C [12]: 4.51%
viability, T/C [13]: 105%
viability, T/C [14]: 89.6%
viability, T/C [15]: 79.8%
viability, T/C [16]: 78.5%
viability, T/C [17]: 57.8%
viability, T/C [18]: 3.52%
viability, T/C [19]: 64.2%
viability, T/C [20]: 61%
viability, T/C [21]: 62.3%
viability, T/C [22]: 65.3%
viability, T/C [23]: 68.1%
viability, T/C [24]: 1.13%
viability, T/C [25]: 2.83%
viability, T/C [26]: 3.36%
viability, T/C [27]: 4.55%
viability, T/C [28]: 1.45%
viability, T/C [29]: 6%
viability, T/C [30]: 0.4%
